From ChEMBL document CHEMBL1146156, “Fish venom (Pterios volitans) peptide reduces tumor burden and ameliorates oxidative stress in Ehrlich's ascites carcinoma xenografted mice” (2006) come the findings set out here.

Common to all, as to format: functional
Assay [1] deals with Mus musculus. Description: Effect on GSH content in liver of Ehrlich's ascites carcinoma xenografted Swiss Albino mouse at 20 mg/kg measured per 100 g tissue.
The subject of assay [2] is Mus musculus. Description: Increase in liver catalase activity of Ehrlich's ascites carcinoma xenografted Swiss Albino mouse at 20 mg/kg.
Assay [3] deals with Mus musculus. As to the kind of experiment: Increase in liver GST activity of Ehrlich's ascites carcinoma xenografted Swiss Albino mouse at 20 mg/kg.
Assay [4] has as its system Mus musculus. As to the kind of experiment: Increase in liver glutathione peroxidase activity of Ehrlich's ascites carcinoma xenografted Swiss Albino mouse at 20 mg/kg.
Assay [5] concerns Mus musculus. As to the kind of experiment: Increase in mean survival time of Ehrlich's ascites carcinoma xenografted Swiss Albino mouse at 20 mg/kg.
Assay [6] has as its system Mus musculus. As to the kind of experiment: Effect on hydroperoxide levels in liver of Ehrlich's ascites carcinoma xenografted Swiss Albino mouse at 20 mg/kg measured per 100 g tissue.
Assay [7] relates to Mus musculus. Description: Effect on TBARS levels in liver of Ehrlich's ascites carcinoma xenografted Swiss Albino mouse at 20 mg/kg measured per 100 g tissue.
The test system of assay [8] is Mus musculus. Description: Increase in liver SOD activity of Ehrlich's ascites carcinoma xenografted Swiss Albino mouse at 20 mg/kg.
Assay [9] concerns Mus musculus. Description: Increase in life span of Ehrlich's ascites carcinoma xenografted Swiss Albino mouse at 20 mg/kg.
Assay [10] deals with Mus musculus. As to the kind of experiment: Decrease in body weight of Ehrlich's ascites carcinoma xenografted Swiss albino mouse at 20 mg/kg.

Each structure is given as a SMILES string.

`O=c1[nH]cc(F)c(=O)[nH]1` [FLUOROURACIL]: the Activity in the assay on Mus musculus [1] stood at 3.65 mmol; in the assay on Mus musculus [2], 20.4 U/mg; in the assay on Mus musculus [3], 16.2 U/mg; with Mus musculus [4], 6.97 U/mg; in the assay on Mus musculus [6] it was 0.85 mmol; in the assay on Mus musculus [7], 0.99 mmol. The values for the Activity in the assay on Mus musculus [8], with Mus musculus [9] and in the assay on Mus musculus [10] were 3.96 U/mg, 119.49% and 25.2 g, respectively. The MST in the assay on Mus musculus [5] is 39.5 days.
